Data published in publication PMC12702928, “Improved exposure of curcumin-loaded nanocapsules: drug quantification in LPS-induced Drosophila melanogaster and pharmacokinetics in Wistar rats” (Frontiers in Pharmacology, 2025).
Values joined by “and” are separate entries in the source; they are usually repeats but may differ in a detail not shown here. Equal values may be shown once. Read-outs that look alike come from different tables or passages of the source.

Assays:
[1] = parameters: method as in Wang et al., 2018; details: mice; intravenous administration of 20 mg kg; ref Wang et al., 2018; cited from earlier work
[2] = test system: healthy flies; parameters: method as in Fernandes et al., 2023; details: ref Fernandes et al., 2023; cited from earlier work
[3] = Stability of CUR in spiked S1 flies (whole-body fly homogenate supernatant); assay type: in vitro ADME, D. melanogaster
Description: (§1) This homogenate was prepared by weighing 0.02 g of whole flies, followed by adding 600 µL of acetonitrile and homogenizing with an Ultra-Turrax (T10, GmbH, Germany) for 30 s at 28,800 rpm. The mixture was centrifuged at 14,000 rpm for 10 min at 4 °C to obtain the whole-body fly homogenate supernatant (S1). Subsequently, 90 µL of S1 was spiked with 10 µL of each calibration standard and 10 µL of the IS. Deproteinization was achieved by adding 1,000 µL of acetonitrile and 10 µL of 0.2% HCl. The mixtures were vortexed for 5 min, then centrifuged at 14,000 rpm for 10 min at 4 °C. The supernatant was separated, evaporated to dryness using a centrifugal vacuum concentrator at 45 °C for 60 min, and the residue reconstituted in 100 µL of mobile phase.
(§2) Stability tests were performed under identical conditions for both matrices: room temperature for 6 h (22 °C ± 3 °C), in the autosampler for up to 24 h (22 °C ± 3 °C), after 60 days in a freezer (−80 °C ± 2 °C), and across three freeze-thaw cycles, with each thawing period at room temperature for approximately 2 h and refreezing for 12 h at −20 °C. For each species, three replicates at concentrations of 3 and 150 ng/mL were tested.
(§3) Samples were deemed stable if the results fell within the acceptable limits of accuracy (±15% of nominal concentration) and precision (±15% CV). For the LLOQ, the CV was not to exceed 20% ([FDA, 2018]; [ICH, 2019]).

[4] = Stability of CUR in spiked rat plasma; assay type: in vitro ADME; details: Plasma rats
Description: The rat plasma extraction was processed similarly to that of the flies, with 10 µL of each calibration standard sample mixed with 90 µL of blank rat plasma and 10 µL of the IS, followed by deproteinization with acetonitrile.
as §2, §3

[5] = parameters: method as in Yang et al., 2007; details: rats; 500 mg kg; ref Yang et al., 2007; cited from earlier work
[6] = In vitro release (dialysis bag method) and release kinetics modelling; assay type: physicochemical
Description: The release medium was phosphate-buffered saline, prepared according to pharmacopeial standards and consisting of 0.02% KCl (w/v), 0.02% KH2PO4 (w/v), 0.116% Na2HPO4 (w/v), and 0.8% NaCl (w/v) (adjusted with 10 mM NaOH, pH 7.4) ([Anvisa, 2019]).
The dialysis bags containing CUR-loaded NCs were immersed in the phosphate-buffered saline medium at 37 °C with horizontal shaking at 50 rpm.
At predetermined intervals, 2 mL of the medium was withdrawn for analysis with a UV spectrophotometer (UV-1800, Shimadzu, Japan) at 427 nm. The experiments were conducted in triplicate (n = 3), with results reported as the percentage of drug released over time.
Evaluated models included zero-order (Equation 1), monoexponential (Equation 2), bi-exponential (Equation 3), Weibull (Equation 4), and Higuchi (Equation 5). F=k0·t (1) F=100 ·1−e^−k1·t (2) F=100·1−Ae^−αt+Be^−βt (3) F=100·1−e^−t^β/α (4) F=kH·t^0.5 (5) where F is the percentage of drug released at time t (h), k 0 is the zero-order release constant (h^−1), k 1 is the first-order release constant (h^−1), A and B represent the fractions of drug distributed in different phases, and α and β (h^−1) are the specific kinetic rate constants. k H represents the Higuchi release constant.
The drug release mechanism was further evaluated by fitting the data to the Peppas-Sahlin (Equation 6) and Korsmeyer-Peppas (Equation 7) models: F=k1· t^0.5+k2 ·t (6) F=kKP·t^n (7) where k 1 is the constant (h^−1) denoting the relative contribution of t ^0.5 dependent drug diffusion to drug release, k 2 is the constant (h^−1) denoting the relative contribution of t-dependent polymer relaxation to drug release, k KP is the kinetic constant of the Korsmeyer-Peppas model, and n is the diffusion exponent that indicates the drug transport mechanism.
The release profiles were plotted and fitted using different in vitro release models. The results of the in vitro drug release study were evaluated based on dissolution efficiency and independent/dependent kinetic models. Model selection was performed considering the highest correlation coefficient (R ^2) and the Akaike Information Criterion (AIC) ([Vieira et al., 2016]).

[7] = ref Nakama et al., 2020; cited from earlier work
[8] = Pharmacokinetic study in rodents (non-compartmental analysis); assay type: in vivo, Wistar rats
Description: As described in our previous study, the NC-CUR was prepared via the interfacial deposition method of preformed polymers, ensuring the same final concentration ([Santos et al., 2021]). […] For the oral administration groups, blood sampling began 0.25 h post-gavage (Figure 1B). […] Pharmacokinetic parameters were calculated using non-compartmental analysis with PKanalix 2023R1 software (Lixoft, France). Plasma concentration-time profiles for each experimental group were analyzed individually.

[9] = Fly whole-body CUR quantification after 10-day dietary exposure, healthy flies; assay type: in vivo, D. melanogaster; details: both sexes, Drosophila melanogaster, whole-body homogenate, oral, 110 ng/mL in food medium for 10 days
Description: as §1
Adult healthy flies (1–3 days old) of both sexes were used, with each group consisting of 25 males and 25 females (n = 6 replicates/50 flies each). […] The medium was replaced every 3 days. The dosing and study design were based on our previous study ([Fernandes et al., 2023]).

[10] = Fly whole-body CUR quantification, lipopolysaccharide-induced inflammation; assay type: in vivo, D. melanogaster; details: LPS 250 μg/mL in food medium + 37 ng/mL for 10 days
Description: as §1

[11] = nominal 3 ng/mL, 6 h (bench-top)
[12] = nominal 3 ng/mL, 24 h 6 h (bench-top)
[13] = nominal 3 ng/mL, Freeze-thaw cycles
[14] = nominal 150 ng/mL, 6 h (bench-top)
[15] = nominal 150 ng/mL, 24 h (autosampler)
[16] = nominal 150 ng/mL, 60 d (−80 °C)
[17] = nominal 150 ng/mL, Freeze-thaw cycles
[18] = male, Wistar, rat, plasma, iv, 2 mg/kg, Intravenous 2 mg/kg
[19] = male, Wistar, rat, plasma, Intravenous 2 mg/kg
[20] = male, Wistar, rat, plasma, Oral 6 mg/kg

For COc1cc(/C=C/C(=O)CC(=O)/C=C/c2ccc(O)c(OC)c2)ccc1O [CUR, Curcumin], the half-life [1] is listed as “approximately 32.4 min”, the “concentrations producing increased survival and enhanced antioxidant defenses” value [2] is listed as “above 300 μM” and the Accuracy [3, 11] is listed as 84.45%. The “Mean ± SD” value [3, 11] was 2.74 ± 0.39 ng/mL, the Accuracy [3, 12] was 114.19% and the “Mean ± SD” value [3, 12] was 3.23 ± 0.24 ng/mL. The Accuracy ([3]; nominal 3 ng/mL, 60 d (−80 °C)) was 103.03%, the “Mean ± SD” value ([3]; nominal 3 ng/mL, 60 d (−80 °C)) was 3.09 ± 0.26 ng/mL and the Accuracy [3, 13] was 106.81%. The “Mean ± SD” value [3, 13] was 3.20 ± 0.27 ng/mL, the Accuracy [3, 14] was 94.59% and the “Mean ± SD” value [3, 14] was 144.26 ± 4.68 ng/mL. For the same compound, the Accuracy [3, 15] was 89.72%, the “Mean ± SD” value [3, 15] was 142.32 ± 4.62 ng/mL and the Accuracy [3, 16] was 98.39%. For the same compound, the “Mean ± SD” value [3, 16] was 147.59 ± 16.88 ng/mL, the Accuracy [3, 17] was 95.99% and the “Mean ± SD” value [3, 17] was 143.99 ± 13.47 ng/mL. The “Mean ± SD” value [4, 11] was 2.58 ± 0.04 ng/mL, the Accuracy [4, 12] was 98.08% and the “Mean ± SD” value [4, 12] was 2.94 ± 0.19 ng/mL. For the same compound, the Accuracy ([4]; nominal 3 ng/mL, 60 d (−80 °C)) was 86.28%, the “Mean ± SD” value ([4]; nominal 3 ng/mL, 60 d (−80 °C)) was 2.58 ± 0.05 ng/mL and the Accuracy [4, 13] was 86.23%. For the same compound, the “Mean ± SD” value [4, 13] was 2.58 ± 0.04 ng/mL, the Accuracy [4, 14] was 99.1% and the “Mean ± SD” value [4, 14] was 148.64 ± 1.35 ng/mL. The Accuracy [4, 15] was 99.84%, the “Mean ± SD” value [4, 15] was 149.75 ± 0.92 ng/mL and the Accuracy [4, 16] was 98.84%. For the same compound, the “Mean ± SD” value [4, 16] was 148.26 ± 0.17 ng/mL, the Accuracy [4, 17] was 99.1% and the “Mean ± SD” value [4, 17] was 148.64 ± 1.35 ng/mL. The “oral bioavailability (administered dose absorbed)” value [5] was “about 1%”, the B ([6]; Biexponencial model) was 11.93 ± 2.50 and the α ([6]; Biexponencial model) was 0.15 ± 0.02 h⁻¹. The β ([6]; Biexponencial model) was 0.17 ± 0.01 h⁻¹, the A ([6]; Biexponencial model (chosen model), PBS pH 7.4) was 78.99 ± 2.50 and the kH ([6]; Higuchi model) was 18.05 ± 0.07 h⁻¹. For the same compound, the k ([6]; Monoexponencial model, PBS pH 7.4) was 0.14 ± 0.00 h⁻¹, the α ([6]; Weibull model) was 4.73 ± 0.06 h⁻¹ and the β ([6]; Weibull model) was 0.82 ± 0.01 h⁻¹. For the same compound, the “k 0” value ([6]; Zero order model, PBS pH 7.4) was 2.57 ± 0.01 h⁻¹, the drug released ([6]; at 6 h) was 56.09% and the drug released ([6]; at 12 h) was 97.69% and ~100%. The “Log P” value [7] was about 3.2, the kel ([8]; Intravenous 2 mg/kg) was 0.75 h−¹ and the CL ([8]; Intravenous 2 mg/kg, 2 mg/kg) was 7.71 L/h. The t1/2 ([8]; Intravenous 2 mg/kg, 2 mg/kg) was 1.17 h, the “AUC0-∞” value ([8]; Intravenous 2 mg/kg, male Wistar rats, n = 9, 2 mg/kg) was 100.41 ng·h/mL and the kel ([8]; Oral 6 mg/kg) was 0.54 h−¹. The clearance [8, 18] was 125 mL/min, the half-life [8, 18] was 1.77 ± 0.45 h and the AUC(0-inf) ([8]; male, Wistar, rat, plasma, iv, 2 mg/kg, Intravenous 2 mg/kg, male Wistar rats, n = 9) was 100 ± 24.4 ng·h/mL. The half-life ([8]; male, Wistar, rat, plasma, po, 6 mg/kg, Oral 6 mg/kg) was 1.7 h, the AUC(0-inf) ([8]; male, Wistar, rat, plasma, po, 6 mg/kg, Oral 6 mg/kg, male Wistar rats, n = 12) was 25.6 ng·h/mL and the Cmax [8, 19] was 231 ng/mL. It also gave an MRT [8, 19] of 0.79 h, a Vd [8, 19] of 12.8 L and a Cmax [8, 20] of 8.04 ng/mL. It also gave an MRT [8, 20] of 3 h, a Tmax [8, 20] of 1.31 h and a bioavailability ([8]; male, Wistar, rat, plasma, Oral 6 mg/kg vs intravenous 2 mg/kg, read-out: Fabs (absolute bioavailability)) of 8.48%. The concentration at 10 days [9] was about 75 ng/mL and the “CUR concentration in whole-body homogenates” value [10] was “markedly reduced CUR levels”.
